In publication PMC11589570, “Critical assessment of LC3/GABARAP ligands used for degrader development and ligandability of LC3/GABARAP binding pockets” (Nature Communications, 2024):
Several values for one entry are separate records, joined by “and”; a condition that tells them apart may be missing. Equal values may be shown once.

Test system: U2OS cells
Assay: Cell growth assay (IncuCyte confluence over 72 h)
Format: cell-based
Parameters: key to U2OS cell growth: % of well area covered by cells (confluence)
Description: Cell growth assay: Cell confluence (phase) from RPE1 (hTERT RPE-1, ATCC CLR_4000) or U2OS (ATCC, HTB-96) cell lines were monitored over time with the IncuCyte S3 (Sartiorius, Germany) in 384-well plates in 50 ul DMEM media, supplemented with 10% Fetal Bovine Serum (FBS) 1% penicillin/Streptomycin and incubated 24 h before treatment. Experiment was performed as described in Cano-Franco et al.. […] Cell confluence is represented as % of area covered by cells. Each data point represents the average ratio or confluence obtained from three individual wells of the plate.

SMILES: O=C1Nc2ccc(Br)cc2C1=Cc1cc(O)c(O)c(Br)c1 [compound 1]
- U2OS cell growth (100 nM, time 12 h, listed as AN1): 35.4537 and 32.3571 and 35.5968
- U2OS cell growth (100 nM, time 14 h, listed as AN1): 36.0873 and 39.0366 and 39.8543
- U2OS cell growth (100 nM, time 16 h, listed as AN1): 40.1608 and 39.3939 and 40.4478
- U2OS cell growth (100 nM, time 18 h, listed as AN1): 39.1099 and 37.1872 and 41.4362
- U2OS cell growth (100 nM, time 20 h, listed as AN1): 43.7035 and 39.6959 and 46.4166
- U2OS cell growth (500 nM, time 10 h, listed as AN1): 38.9338 and 41.9757 and 41.002
- U2OS cell growth (500 nM, time 12 h, listed as AN1): 39.0148 and 42.3639 and 41.6671
- U2OS cell growth (500 nM, time 14 h, listed as AN1): 46.8116 and 46.7871 and 49.5823
- U2OS cell growth (500 nM, time 16 h, listed as AN1): 47.3468 and 53.1118 and 48.7734
- U2OS cell growth (500 nM, time 18 h, listed as AN1): 38.8125 and 47.7715 and 46.4243
- U2OS cell growth (1 uM, time 10 h, listed as AN1): 48.4994 and 57.2399 and 59.5515
- U2OS cell growth (1 uM, time 12 h, listed as AN1): 47.4737 and 55.8868 and 54.1029
- U2OS cell growth (1 uM, time 14 h, listed as AN1): 46.9999 and 57.1898 and 59.5195
- U2OS cell growth (1 uM, time 16 h, listed as AN1): 54.858 and 68.5371 and 64.7822
- U2OS cell growth (1 uM, time 18 h, listed as AN1): 48.8637 and 59.8627 and 56.3987
- U2OS cell growth (1 uM, time 20 h, listed as AN1): 55.1556
- U2OS cell growth (3 uM, time 10 h, listed as AN1): 50.7422 and 64.1291 and 54.5819
- U2OS cell growth (3 uM, time 12 h, listed as AN1): 47.9181 and 60.7394 and 55.125
- U2OS cell growth (3 uM, time 14 h, listed as AN1): 49.0342 and 60.5893 and 56.0885
- U2OS cell growth (3 uM, time 16 h, listed as AN1): 57.6695 and 67.0321 and 61.6341
- U2OS cell growth (3 uM, time 18 h, listed as AN1): 48.0442 and 62.2285 and 59.0264
- U2OS cell growth (3 uM, time 20 h, listed as AN1): 51.1291 and 66.3122 and 66.4452
- U2OS cell growth (5 uM, time 10 h, listed as AN1): 55.0487 and 54.3842 and 51.4536
- U2OS cell growth (5 uM, time 12 h, listed as AN1): 54.96 and 58.942 and 53.816
- U2OS cell growth (5 uM, time 14 h, listed as AN1): 49.0714 and 54.2863 and 67.0438
- U2OS cell growth (5 uM, time 16 h, listed as AN1): 60.7907 and 61.6888 and 65.4648
- U2OS cell growth (5 uM, time 18 h, listed as AN1): 57.5124 and 66.5017 and 59.7417
- U2OS cell growth (5 uM, time 20 h, listed as AN1): 63.2102 and 60.2689 and 68.651
- U2OS cell growth (10 uM, time 10 h, listed as AN1): 59.7697 and 44.8684 and 48.7466
- U2OS cell growth (10 uM, time 12 h, listed as AN1): 61.5092 and 47.1657 and 52.5139
- U2OS cell growth (10 uM, time 14 h, listed as AN1): 62.1617 and 46.5884 and 50.2783
- U2OS cell growth (10 uM, time 16 h, listed as AN1): 65.2687 and 51.6571 and 54.5952
- U2OS cell growth (10 uM, time 18 h, listed as AN1): 66.9364 and 52.1914 and 55.4238
- U2OS cell growth (10 uM, time 20 h, listed as AN1): 65.8459 and 51.6884 and 56.9826

SMILES: O=c1cc(-c2ccccc2)c2c(O)cc(O)cc2o1 [compound 2]
- U2OS cell growth (100 nM, time 0 h, listed as AN2): 19.1869 and 23.0588 and 16.4621
- U2OS cell growth (100 nM, time 2 h, listed as AN2): 26.3735 and 32.6169 and 19.3997
- U2OS cell growth (100 nM, time 4 h, listed as AN2): 24.7952 and 30.3994 and 22.748
- U2OS cell growth (100 nM, time 6 h, listed as AN2): 35.0609 and 34.7921 and 28.0047
- U2OS cell growth (500 nM, time 0 h, listed as AN2): 31.1146 and 31.1409 and 25.529
- U2OS cell growth (500 nM, time 2 h, listed as AN2): 37.2793 and 37.1141 and 29.374
- U2OS cell growth (500 nM, time 4 h, listed as AN2): 35.0603 and 34.3575 and 27.3746
- U2OS cell growth (500 nM, time 6 h, listed as AN2): 41.7549 and 43.2861 and 37.4758
- U2OS cell growth (500 nM, time 10 h): 32.7403
- U2OS cell growth (1 uM, time 0 h, listed as AN2): 36.01 and 37.7334 and 44.0066
- U2OS cell growth (1 uM, time 2 h, listed as AN2): 41.2565 and 41.9214 and 49.8222
- U2OS cell growth (1 uM, time 4 h, listed as AN2): 42.1175 and 41.7454 and 46.9501
- U2OS cell growth (1 uM, time 6 h, listed as AN2): 43.4595 and 43.9324 and 52.0735
- U2OS cell growth (1 uM, time 8 h, listed as AN2): 40.5517 and 44.5898 and 47.4794
- U2OS cell growth (1 uM, time 10 h, listed as AN2): 50.4894 and 50.7087 and 57.5735
- U2OS cell growth (1 uM, time 12 h, listed as AN2): 52.169
- U2OS cell growth (3 uM, time 0 h, listed as AN2): 52.9397 and 44.5639 and 41.1773
- U2OS cell growth (3 uM, time 2 h, listed as AN2): 56.1844 and 48.7409 and 42.4981
- U2OS cell growth (3 uM, time 4 h, listed as AN2): 62.7365 and 55.2773 and 40.1715
- U2OS cell growth (3 uM, time 6 h, listed as AN2): 59.0724 and 50.9181 and 40.9833
- U2OS cell growth (3 uM, time 8 h, listed as AN2): 54.8708 and 50.2365 and 43.1088
- U2OS cell growth (3 uM, time 10 h, listed as AN2): 58.4454 and 57.5785 and 49.1427
- U2OS cell growth (3 uM, time 12 h, listed as AN2): 58.133 and 56.9126
- U2OS cell growth (5 uM, time 0 h, listed as AN2): 43.5311 and 39.437 and 42.1256
- U2OS cell growth (5 uM, time 2 h, listed as AN2): 49.0024 and 44.0014 and 45.1119
- U2OS cell growth (5 uM, time 4 h, listed as AN2): 52.676 and 42.1033 and 45.9331
- U2OS cell growth (5 uM, time 6 h, listed as AN2): 55.9501 and 52.2867 and 48.2418
- U2OS cell growth (5 uM, time 8 h, listed as AN2): 48.351 and 54.4267 and 50.4706
- U2OS cell growth (5 uM, time 10 h, listed as AN2): 60.2478 and 59.3897 and 54.3527
- U2OS cell growth (10 uM, time 0 h, listed as AN2): 38.4245 and 29.6214 and 35.113
- U2OS cell growth (10 uM, time 2 h, listed as AN2): 42.0042 and 29.7485 and 38.264
- U2OS cell growth (10 uM, time 4 h, listed as AN2): 45.9814 and 34.6443 and 44.264
- U2OS cell growth (10 uM, time 6 h, listed as AN2): 49.3993 and 33.9992 and 45.6677
- U2OS cell growth (10 uM, time 8 h, listed as AN2): 46.5429 and 32.9506 and 41.2472
- U2OS cell growth (10 uM, time 10 h, listed as AN2): 49.5589 and 37.0749 and 46.636
